Results from EP0115142B1, “Chroman compounds” (priority 1982, dated 1984).
Where a name gives a salt, the structure may show the parent alone. Marks after values point to notes of the source that are not given here.

Legend:
DBA-2 mice = experiment: Audiogenic seizure (AS): reversal of clonidine protection; assay type: in vivo; settings: for Minimal effective doses (MED) AS (i.p.): one hour before clonidine 0.4 mg/kg i.p., sound 30 minutes later, mice
Description: Audiogenic Seizure (AS): Sound-produced seizures in mice are blocked by clonidine, an alpha2- agonist, and such a model may be used to measure the activity of a particular compound as an alpha2- antagonist, specifically as it decreases clonidine activity. The activity of clonidine in this regard and its relationship to alpha2-receptors is described by R. Horton et al. in the Journal of Pharmacology and Experimental Therapeutics, Vol. 214, No. 2, pages 437-442 (1980). DBA-2 mice (20-22 days of age; 8 to 12 g) are used in these studies. Mice are tested individually in a glass bell jar (112 inches high and 12 inches in diameter) which is placed in a sound-attenuated chamber. An electric bell is used to generate a noise level of 116-118 decibels. Mice are allowed to acclimate to the chamber for 30 seconds and are then exposed to the sound for 60 seconds. The auditory stimulation causes a convulsive episode characterized by wild running, clonus, tonus and death. […] Thus, the test compound is dissolved in a hydroxypropylmethylcellulose (HPMC) vehicle consisting of 0.1% Tween° 80 and 0.5% hydroxypropylmethylcellulose in an 0.9% by weight sodium chloride aqueous solution and injected intraperitoneally (i.p.) into the mouse. (Tween^O is a registered trademark of ICI Americas Inc., Wilmington, Delaware, USA, for emulsifiers, wetting and dispersing agents. Tween@ is polyoxyethylene sorbitan mono-oleate). After one hour, the mouse is challenged with clonidine intraperitoneally at 0.4 mg/kg of body weight. After a further 30 minutes, the mouse is subjected to a tone from a high intensity bell and the mouse is observed for seizure activity. The activity is scored on the basis of whether clonic and/or tonic seizures occur.

[1] = test system: Male Sprague-Dawley (HLA) rats; experiment: Clonidine hypoactivity (CH) test; assay type: in vivo
Description: The suppression can be prevented by administration of an alpha2-antagonist as described by J. Malick et al. in Federation Proceedings, Vol. 40, page 244 (1981), a publication of the Federation of the American Societies of Experimental Biology. Male Sprague-Dawley (HLA) rats, weighing 140 to 180 g, were used throughout these studies. Spontaneous locomotor activity was measured in Animex activity monitors supplied by Columbus Instruments, Columbus, Ohio; groups of three animals were placed in a chamber of clear "Plexiglas", 26.5 x 26.5 x 15 cm for the test. ("Plexiglas" is a trademark of Rohm & Haas Co., Philadelphia, Pennsylvania, USA, for thermoplastic polymethyl methacrylate type polymers and plastic sheets). All animals received two injections prior to testing according to the following paradigm: vehiclec (HPMC) or antagonist was administered subcutaneously 30 minutes prior to intraperitoneal administration of either HPMC or clonidine. […] Animals were placed into the motor activity chambers as soon as possible after the second injection and total activity counts were recorded for 20 minutes. Five groups of 3 rats each were used for each dose of drug or control.

locus coeruleus = experiment: Locus coeruleus test (single unit firing, clonidine reversal); assay type: in vivo, Male Sprague-Dawley rats; settings: anesthetized rats; for clonidine required to re-suppress firing: after firing was reinstated by the test agent, i.v.; for dose that reinstated firing: i.v. infusion after clonidine 10 micrograms/kg i.v. suppressed firing
Description: Locus Coeruleus Test: The locus coeruleus test for alpha2-antagonist activity is predictive of anti- depressant activity as described by G. Engberg et al. in Communications in Psychopharmacology, Vol. 4, pages 233-239 (1980). The alphas-antagonistic properties of a test agent are determined as follows: Male Sprague-Dawley rats (280-320 g) are anesthetized with sodium pentobarbitol (60 mg/kg of body weight, i.p.) and placed in a stereotaxic instrument to allow precise location of the electrode in the locus coeruleus. Extracellular single unit activity is recorded from the locus coeruleus using stainless steel or tungsten microelectrodes (2-5 megohm impedance). Extracellular potentials are counted during successive 10 second intervals and recorded on a digital counter. The baseline firing rate of each neuron is determined for 3 to 5 minutes before drug administration. Drugs are injected intravenously in a volume of 0.1 ml; data are collected for 2 to 3 minutes between multiple drug injections. The ability of a test agent to reverse the suppressant effects of clonidine, and the total cumulative dose of clonidine required to override the test agent, are indicative of alpha2-antagonistic properties. In this test, 10 micrograms/kg of body weight of clonidine were administered by infusion intravenously to suppress firing.

[2] = biological target: T1, alpha2 binding site in human platelets (Homo sapiens, UniProt P08913); experiment: Tritiated yohimbine binding assay
T1 construct: from tissue; host or cells: human platelets (washed and disrupted membrane preparation)
T1 sequence (P08913 1-465): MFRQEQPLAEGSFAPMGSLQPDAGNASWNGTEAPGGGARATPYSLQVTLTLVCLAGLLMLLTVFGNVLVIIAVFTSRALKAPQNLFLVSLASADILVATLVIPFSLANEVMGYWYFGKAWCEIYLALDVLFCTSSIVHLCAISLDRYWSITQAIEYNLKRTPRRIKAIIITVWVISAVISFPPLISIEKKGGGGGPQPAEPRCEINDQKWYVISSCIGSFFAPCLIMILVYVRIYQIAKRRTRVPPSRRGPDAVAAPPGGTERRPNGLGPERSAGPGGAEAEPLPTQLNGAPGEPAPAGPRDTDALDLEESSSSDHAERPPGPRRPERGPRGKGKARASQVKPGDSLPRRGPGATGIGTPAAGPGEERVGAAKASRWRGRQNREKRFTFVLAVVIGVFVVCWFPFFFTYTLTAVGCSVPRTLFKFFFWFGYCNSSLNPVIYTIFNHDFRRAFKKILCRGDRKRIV
Description: The test is conducted as described by M. Daiguji et al. in Life Sciences, Vol. 28, pages 2705-2717 (1981). Platelets are washed and disrupted as described in the Daiguji article. The amount of platelet used per assay varies between 0.2 to 1.5 mg of protein. […] For the determination of non-specific binding, 20 microliters of 10 millimolar norepinephrine is used. The incubation is conducted at 25°C for 60 minutes, after which the membranes are filtered under vacuum on a GF/B filter. The filters are then counted in a scintillation counter. […] It is known that if an alpha2-agonist or alpha2-antagonist binds to alpha2 sites, such will be displaced more easily by a compound which is also of the same type, i.e., an agonist or antagonist, respectively.

mouse = experiment: Mouse learned helplessness swimming test (MLHS); assay type: in vivo; settings: one hour before test, time in tonic immobility
Description: During testing, a mouse is gently placed in the water and tested for a total of 6 minutes as follows: during the first 2 minutes the animal quickly "learns" there is no escape and spends the vast majority of the last 4 minutes floating (tonic immobility). Nothing is recorded during the first 2 minutes (learning period) but the time in seconds spent in tonic immobility during the last 4 minutes of the session is recorded. […] Control (vehicle-treated) groups are run each day and drug-treated groups are compared to these via a Student's t-test.

SMILES | mice protected from audiogenic seizures (DBA-2 mice; 0.4 mg/kg of body weight, i.p., 30 minutes prior to auditory stimulation) [%] | lowest dose that consistently produced a statistically significant reduction in motor activity ([1]; i.p., rats, pilot studies) | clonidine required to re-suppress firing (locus coeruleus) | dose that reinstated firing (locus coeruleus) | Minimal effective doses (MED) AS (i.p.) (DBA-2 mice) | Minimal effective doses (MED) CH (s.c.) ([1]; rat, in vivo) | IC50 [2] [nM] | Minimal effective doses (MED) MLHS (i.p.) (mouse) | Minimal effective doses (MED) CH (s.c.) ([1]; s.c., 30 minutes before clonidine 0.01 mg/kg i.p., rats, activity counts for 20 minutes)
Clc1cccc(Cl)c1N=C1NCCN1 [Clonidine, reference compound] | 100 | 0.01 mg/kg of body weight | – | – | – | – | – | – | –
c1ccc2c(c1)CCC(C1=NCCN1)O2 (centres unmarked) [Example 1c, 2-(2-Imidazolin-2-yl)chroman] | – | – | 1280 micrograms/kg of body weight | reinstated firing at the same level | 5 mg/kg of body weight | 0.3 mg/kg of body weight | 34 | 10 mg/kg of body weight | –
Fc1cccc2c1CCC(C1=NCCN1)O2 (centres unmarked) [Example 2e, 2-(2-Imidazolin-2-yl)-5-fluorochroman] | – | – | – | reinstated firing at the same level | 1 mg/kg of body weight | 0.5 mg/kg of body weight | 3.8 | 30 mg/kg of body weight | –
Fc1cccc2c1OC(C1=NCCN1)CC2 (centres unmarked) [Example 3e, 2-(2-Imidazolin-2-yl)-8-fluorochroman] | – | – | – | – | ~3* mg/kg of body weight | – | 53.5 | 30 mg/kg of body weight | –
c1ccc2c(c1)OCC(C1=NCCN1)O2 (centres unmarked) [RX 781094, 2-[2-(1,4-benzodioxanyl)]-22imidazoline hydrochloride, reference compound] | – | – | – | – | 2.5 mg/kg of body weight | – | – | – | 0.03 mg/kg of body weight
COC(=O)[C@@H]1[C@H]2C[C@H]3c4[nH]c5ccccc5c4CCN3C[C@@H]2CC[C@@H]1O [yohimbine, reference compound] | – | – | 160 micrograms/kg of body weight | 2.0 mg/kg of body weight | – | – | – | – | –
